Values of other authors as cited in patent publication US11896675B2, “Site-specific antibody conjugation and antibody-drug conjugate as specific embodiment thereof” (AbTis Co., Ltd., priority 2019, dated 2024).
pKd: −log10 of the molar value. Square brackets hold non-standard residues; d marks the D form. Ends that are not written are not given here. Cit = NC(=O)NCCC[C@H](N)C(=O)O

Tests used:
IgG [1] = conditions: towards IgG
IgG [2] = conditions: towards IgG, obtained at different conditions or by different methods; for pKd: read-out: Binding Constant Kd

Substance	Binding Capacity, DBC (dynamic binding capacity) (IgG [1])	Binding Constant Ka (IgG [2])	Binding Capacity (maximal binding capacity qm) (IgG [1])	pKd (IgG [2])	Binding Capacity (IgG [1])
NKFRGKYK [spot peptide array peptide]	DBC-4.9	Ka = 8.6 × 10^6M^−1			
APAR [comb. tetrapeptide library peptide]			9.1 mg/mL	7.03	
D2AAG (DDAAG) [Compound D2AAG, comb. library ligand, SpA mimic]		Ka = 7.9 × 10^5M^−1	36.2 mg/mL		
NARKFYKG [spot peptide array peptide]	DBC-5.0	Ka = 6.5 × 10^6M^−1			
FRRHL [comb. library peptide, SpA mimic]			33.6 mg/mL	4.59	
FYCHWALE			87.6 mg/mL	5.21	
cyclo[(Link-M-WFRHYK]			19.7 mg/mL	5.12	
HYFKFD [comb. library peptide, SpA mimic]			27.0 mg/mL	4.96	
HWCitGWV (HW[Cit]GWV) [comb. library peptide, SpA mimic]			78 mg/mL	3.97	
RRGW				9.30	
EPIHRSTLTALL [phage display library peptide, SpA mimic]					320 µg/g
FYWHCLDE			104.2 mg/mL	5.82	
DAAG [comb. library ligand, SpA mimic]		Ka = 2.6 × 10^5M^−1	49.6 mg/mL		
HWRGWV [comb. library peptide, SpA mimic]			26.4 mg/mL	5.00	
KHRFNKD [phage-display library peptide, SpA mimic]				7.70	
FYCHTIDE [FYCHTIDE(3)]			63.7 mg/mL	5.24	
